Two compounds from EP1144011B1, “PRODRUG COMPOUNDS AND PROCESS FOR PREPARATION THEREOF” (Coulter Pharmaceutical, Inc., priority 1998, dated 2000) can be followed below.

The subject of data set [1] is MCF 7/6 (breast carcinoma) conditioned media. Briefly: Compound screen: cleavage by MCF 7/6 conditioned media, HPLC. Type of data set: biochemical. To be noted: 2 hr at 37°C. The protocol: (§1) Test samples were incubated at 37°C for 2 hr with the three different preparations of carcinoma enzyme and with whole blood, extracted with acetonitrile, and analyzed by HPLC using fluorescence detection. With few exceptions, results for carcinoma enzyme cleavage were the same for a partially purified fraction from HeLa cells, MFC 7/6 cell homogenate, or MCF 7/6 conditioned media.
MCF 7/6 cells were grown to confluence in DMEM/F12 (1:1) medium containing 10 % fetal bovine serum, 0.05% (w/v) L-glutamine, 250 IU/mL penicillin, and 100 µg/mL streptomycin. Cells were then washed twice with phosphate buffered saline and incubated 24 hr at 5% CO2, 37°C, in DMEM/F12 (1:1), 0.02% BSA, ITS-X. The conditioned media was then decanted and, using a stirred cell apparatus with a YM10 (10.000 MW cutoff) ultrafiltration membrane(Millipore), exchanged once with 10 mM HEPES buffer, pH 7.2 and concentrated twenty-fold. This solution was stored in aliquots at-20°C for use in the compound screen. […]
(§2) For HPLC analysis 50 µL of sample was injected on a 4.6 x 50 mm 2µ TSK Super-ODS chromatography column at 40°C and eluted with a 3 minute linear gradient from 26% to 68% acetonitrile in aqueous 20 mM ammonium acetate pH 4.5 buffer at 2 mL/min. Detection was by fluorescence using an excitation wavelength of 235 nm and an emission wavelength of 560 nm. […]

The test system of data set [2] is trouase. Put plainly: Compound screen: cleavage by HeLa cell anion exchange fraction pool (partially purified trouase), HPLC. The class given is biochemical, human. To be noted: 2 hr at 37°C. How it is done:
as §1
Thirty billion commercially produced HeLa Cells (human cervical carcinoma, Computer Cell Culture Center, Seneffe, Belgium) were homogenized with a sonicator and with a Dounce homogenizer in 108 mL of aqueous lysis solution. […]
A portion of the ultracentrifugation supernatant was diluted 2-fold with a 20 mM triethanolamine-HCl pH 7.2 buffer containing 0.01% (w/v) Triton X-100 and 0.02% (w/v) sodium azide (equilibration buffer). […] Its transformation into L-alanyl-L-leucyl-doxorubicin was quantified by reverse phase high performance liquid chromatography utilizing fluorescence detection of the anthracycline moiety. […]
as §2

Data set [3] concerns MCF 7/6 (breast carcinoma) cell homogenate. Put plainly: Compound screen: cleavage by MCF 7/6 cell homogenate, HPLC. The class given is biochemical. How it is done:
Based on HPLC analysis of digestion products, activation of peptidyl-toxin to free toxin occurs via a series of enzyme catalyzed cleavage reactions. […] Initial endopeptidase cleavage occurs between the AA^3 (P1) and AA^2(P1') amino acids to yield alanyl-leucyl-doxorubicin.
as §1
MCF 7/6 cells were grown to confluence in a serum free medium containing DMEM:F12 (1:1), 50 mg/L bovine serum albumin, ITS-X, and Lipid Concentrate. 100 mL of cells were harvested by centrifugation at 4°C 10,000xg, for 20 min and decanting the supernatant. The pellet was resuspended in 2 mL phosphate buffered saline (Gibco) and centrifuged at 18,000xg for 10 min. […]
as §2

Data set [4] deals with adriamycin-resistant colorectal carcinoma CXF280/10. Put plainly: Nude mouse xenograft model, CXF280/10. The class given is in vivo. The note with it: CXF280/10 xenograft.
Data set [5] deals with LS-174T human colorectal carcinoma. Briefly: Nude mouse xenograft model, LS-174T.
Data set [6] relates to estrogen-dependent MCF-7/6 mammary tumor. Briefly: Nude mouse xenograft model, MCF-7/6. The note with it: MCF-7/6 xenograft. Type of data set: in vivo.
The nature of data set [7]: Supporting toxicity studies. The note with it: doses of up to 106.8 mg/kg.
Data set [8] can be described thus: Acute toxicity after intravenous injection in mice. The class given is in vivo. To be noted: iv bolus of 250 mg/kg (Dox-HCl eq.), three to five mice per group.
Where [9] appears, read: subcutaneous LS174T tumors, five weekly intravenous doses of 57, 64 and 71 mg/kg, versus vehicle-treated controls.

On to `COc1cccc2c1C(=O)c1c(O)c3c(c(O)c1C2=O)C[C@@](O)(C(C)=O)C[C@@H]3O[C@H]1C[C@H](NC(=O)[C@H](CC(C)C)NC(=O)[C@H](C)NC(=O)[C@H](CC(C)C)NC(=O)[C@H](C)NC(=O)CCC(=O)O)[C@H](O)[C@H](C)O1` [P2 L-alanine compound], for which the “extent of cleavage by conditioned medium versus the P2 β-alanine compound” value in data set [1] is listed as “about the same”. Further, the “extent of cleavage with the partially purified trouase preparation versus the P2 β-alanine compound” value in data set [2] was 0.6 fold. Moreover, the “extent (rate) of cleavage by cell homogenate versus the P2 β-alanine compound” value in data set [3] (2 hr at 37°C) was determined as 1.3 fold.

As to `COc1cccc2c1C(=O)c1c(O)c3c(c(O)c1C2=O)CC(O)(C(=O)CO)CC3OC1CC(NC(=O)C(CC(C)C)NC(=O)C(C)NC(=O)C(CC(C)C)NC(=O)CCNC(=O)CCC(=O)O)C(O)C(C)O1` (stereo not drawn) [succinyl-β-Ala-Leu-Ala-Leu-Dox], the “inhibiting the growth of human tumors” value in data set [4], in data set [5] (LS-174T xenograft) and in data set [6] was “efficacious” each time. The “activation of peptidyl-toxin (digestion products by HPLC)” value in data set [3] (extracts of carcinoma cells or carcinoma cell conditioned media, two steps, at least two enzymes) is “converted to leucyl-doxorubicin”. Moreover, the “toxicity at efficacious doses” value in data set [5] (LS-174T xenograft model) is recorded as “without significant toxicity”. The “efficacy in inhibiting LS-174T tumor compared to doxorubicin at 3.0 mg/kg and saline” value in data set [5] (doses of 49, 57 and 64 mg/kg) is “superior efficacy”. Also, in data set [5] (repeat dosing, LS174T model), the body weight entry is given as “Some dose-dependent body weight loss”. The safety and tolerability result in data set [5] (repeat-dose levels and frequencies that demonstrated anti-tumor efficacy) was “safe and well-tolerated”. Moreover, the “Mean Day of Survival (MDS)” value in data set [5] (setting [9]) is on record as “significant, dose-dependent, replicable extension”. Besides, the tumor volume result in data set [5] (setting [9]) is given as “decreased size of the tumor”. For the same compound, the “kidney toxicity and myelosuppression” value in data set [7] is on record as “not observed”. In addition, the survival entry in data set [8] was “all animals survived up to 8 days”.
